From EP2905286A1, “Novel diazabicyclohydrocarbon-Pt complexes and the use thereof as pharmaceuticals” (Studiengesellschaft Kohle mbH, priority 2014, dated 2015)

Key:
[1] = Solubility observed during preparation; assay type: physicochemical; conditions: for solubility in solvents in general: most or all solvents (ambient temperature, including CH2Cl2 and THF; including DMSO)
A2780 CisR cells = experiment: MTT cell viability assay, cisplatin resistance model; assay type: cell-based; conditions: for IC50: A2780 CisR cells, 72 h incubation, MTT; for resistance factor: ratio of IC50 in A2780 CisR cells to IC50 in parental A2780 cells
Protocol: (§1) The rate of cell-survival under the action of test compounds was evaluated by an improved MTT assay as previously described for 3-(4,5-dimethylthiazol-2-yl)-2,5-diphenyltetrazolium bromide (MTT, Applichem, Germany) (Mueller, H., Kassack, M. U., Wiese, M. J. Biomol. Screen. 2004, 9, 506-515).
(§2) The assay is based on the ability of viable cells to metabolize yellow MTT to violet formazane crystals that can be detected spectrophotometrically. In brief, A2780 (ECACC, Salisbury, UK) and A2780 CisR cells (established by exposure of A2780 cells to weekly cycles of 2 µmol/L cisplatin over a period of 24 weeks) were seeded at a density of 8,000 cells/well in 96well plates (Corning, Germany) in 90 µL drug-free complete medium. After an incubation period of 24 h at 37 °C under humidified air supplemented with 5% CO2, cells were exposed to dilutions of the test compounds in 100 µL/well. Stock solutions were prepared in a concentration of 10^-2 M in water, and serial dilutions were prepared by using sodium chloride 0.9%. Incubation was ended after 72 h and cell survival was determined by addition of 25 µL/well MTT solution (5 mg/mL in phosphate buffered saline). After an incubation period of 10 min at 37 °C, the medium was carefully removed. The intracellular formazan product was solubilized by adding 75 µl DMSO/well. Absorbance was measured at 544 nm and 690 nm with a FLUOstar microplate-reader (BMG LabTech, Offenburg, Germany). The absorbance of untreated control cells was taken as 100% viability. All tests were performed in triplicate.
(§3) Indicated are mean values ± standard error of the mean. Concentration/inhibition curves were fitted to the data by nonlinear regression analysis using the four parameter logistic equation (GraphPad Prism).
Values are means ± SEM derived from a representative experiment performed in triplicate. The resistance factor was calculated as the ratio of the IC50 value of the A2780 CisR cells and the IC50 value of the corresponding sensitive parental A2780 cell line.

A2780 = experiment: MTT cell viability assay; assay type: cell-based; conditions: A2780 cells, 72 h incubation
Protocol: as §1, §2, §3

Row | Structure (SMILES) | solubility in DMF [1] | solubility in water [1] | IC50 (A2780 CisR cells) | resistance factor (A2780 CisR cells) | IC50 (A2780) | solubility in DMSO [1] | solubility in solvents in general [1]
1 | C1NCC2CNCC1C2.O=C1[O][Pt][O]C(=O)C12CCC2 [2a, (C7H14N2)Pt{(O2C)2C4H6}] | poor | more soluble in water than the dichloride 1 | 57.1 µM | 6.46 | 8.84 µM |  | 
2 | N.N.[Cl][Pt][Cl] [cisplatin, cis-(NH3)2PtCl2, reference compound] |  |  |  |  | 1.38 µM |  | 
3 | O=C1[O][Pt]2([NH][C@@H]3CCCC[C@H]3[NH]2)[O]C1=O (relative stereo) [oxaliplatin, trans-(R,R)-1,2-diamino-cyclohexane platinum(II)oxalate, reference compound] |  |  | 0.95 µM | 4.52 | 0.21 µM |  | 
4 | N.N.O=C([O-])C1(C(=O)[O-])CCC1.[Pt+2] [carboplatin, reference compound] |  |  | 40.2 µM | 9.50 | 4.23 µM |  | 
5 | C1NCC2CNCC1C2.CN(C)C=O.[Cl][Pt][Cl] [1b, (C7H14N2)PtCl2·DMF] | dissolve increasingly well | dissolve increasingly well |  |  |  | dissolve increasingly well | insoluble in most solvents
6 | [Cl][Pt]1([Cl])[N]2CC3C[N]1CC(C2)C31OCCO1 [compound 4, (Spiro[bispidin-9,2'-[1,3]dioxolane])platinum(II)dichloride] |  |  |  |  |  |  | insoluble in all solvents, including DMSO
7 | C1NCC2CNCC1C2.O=C1[O][Pt][O]C1=O [compound 3, (C7H14N2)Pt(C2O4)] |  |  | 35.3 µM | 4.88 | 7.24 µM |  | 
8 | O=C([O-])C1(C(=O)[O-])CCC1.OC1(O)C2CNCC1CNC2.[Pt+2] [compound 6, (Bispidin-9,9-diol)platinum(II)(1,1-cyclobutanedicarboxylate)] | dissolves well | dissolves well |  |  |  | dissolves well | 
9 | C1NCC2CNCC1C2.[Cl][Pt][Cl] [1a, (C7H14N2)PtCl2] | dissolve increasingly well | dissolve increasingly well | 10.6 µM | 2.52 | 4.2 µM | dissolve increasingly well | insoluble in most solvents
